{"source": "paper PMC4177084", "about": "(Journal of Thyroid Research, 2014)", "key": {"RO82-W-1 cells": {"test_system": "RO82-W-1 cells", "assay": "Antiproliferation assay (WST-8)", "type": "cell-based, human", "settings": "for antiproliferative activity: RO82-W-1, in words; for T/N: ratio of IC50 values of thyroid cancer cell lines to that of Nthy-ori 3-1 cells: RO82-W-1; for IC50: RO82-W-1 (DTC), antiproliferative, 3 days"}, "K1 cells": {"test_system": "K1 cells", "assay": "Antiproliferation assay (WST-8)", "type": "cell-based, human", "settings": "for T/N: ratio of IC50 values of thyroid cancer cell lines to that of Nthy-ori 3-1 cells: K1; for IC50: K1 (DTC), antiproliferative, 3 days"}, "Nthy-ori 3-1 cells": {"test_system": "Nthy-ori 3-1 cells", "assay": "Antiproliferation assay (WST-8)", "type": "cell-based, human", "settings": "Nthy-ori 3-1 (normal thyroid), antiproliferative, 3 days"}, "FTC-133 cells": {"test_system": "FTC-133 cells", "assay": "Antiproliferation assay (WST-8)", "type": "cell-based, human", "settings": "for T/N: ratio of IC50 values of thyroid cancer cell lines to that of Nthy-ori 3-1 cells: FTC-133; for IC50: FTC-133 (DTC), antiproliferative, 3 days"}, "FTC-238 cells": {"test_system": "FTC-238 cells", "assay": "Antiproliferation assay (WST-8)", "type": "cell-based, human", "settings": "for T/N: ratio of IC50 values of thyroid cancer cell lines to that of Nthy-ori 3-1 cells: FTC-238; for IC50: FTC-238 (DTC), antiproliferative, 3 days"}, "FTC-236 cells": {"test_system": "FTC-236 cells", "assay": "Antiproliferation assay (WST-8)", "type": "cell-based, human"}, "RO82-W-1 xenograft": {"test_system": "RO82-W-1 xenograft", "assay": "Human thyroid cancer xenograft model, tumor growth", "type": "in vivo, nude mice", "method": "Nude mice (CAnN.Cg-Foxn1nu/CrlCrlj, female, 5-6 weeks old) were obtained from Charles River Laboratories Japan (Kanagawa, Japan). Mice were maintained under specific pathogen-free conditions and housed in barrier facilities on a 12 h light/dark cycle, with food and water ad libitum. All procedures using laboratory animals were done in accordance with all applicable institutional and government regulatory guidelines and policies and were performed in an animal facility accredited by the Center for Accreditation of Laboratory Animal Care of the Japan Health Sciences Foundation.\nTumor cells were cultured in appropriate culture mediums. Cells were harvested with 0.05% or 0.25% (w/v) trypsin/EDTA and suspended with 50% (v/v) BD Matrigel (BD Biosciences, San Jose, CA) in the mixture of culture mediums at a density of 5–10 × 10^7 cells/mL. Then, 0.1-0.2 mL of the cell suspension was inoculated subcutaneously into the right flank region of each mouse. […] The tumor size was measured in two dimensions by using a caliper, and the volume was calculated by using the formula: tumor volume (mm^3) = 1/2 length (mm) × [width (mm)]^2. The change in tumor volume in the treated group relative to that in the control group was calculated according to the following formula: ΔT/C = (ΔT/ΔC) × 100%, where ΔT and ΔC are the change in tumor volume (i.e., growth) for the treated and vehicle control group, respectively. The percentage of tumor growth inhibition (%TGI) was calculated from the formula: [(1 − ΔT/ΔC) × 100].\nSupplementary Fig. S7 Comparison of antitumor activity with antiangiogenesis activity in human differentiated thyroid cancer RO82-W-1 xenografts in nude mice.\nNude mice bearing RO82-W-1 xenografts […]\nwhen tumor volumes reached about 200 mm3 (day 1). The tumor volume was measured on day 22. Each group consisted of 6 mice. Data are shown as means ± SD. * P < 0.05 compared with vehicle-treated mice.\n(b) The percentage of tumor growth inhibition (%TGI). Each group consisted of 6 mice. Antitumor activity was calculated as %TGI at day 22. Data are shown as means ± SD. * P < 0.05 compared […]\nanalyze the relationship between antitumor activity (%TGI) and antiangiogenesis activity (percentage of […]\nsorafenib-treated groups were plotted on the X- and Y-axes, respectively. %TGI and %MVI was determined as described in Materials and Methods. Analysis of covariance (ANCOVA) for %TGI was examined by using %MVI as a covariate (P<0.05)"}, "[1]": {"test_system": "FGFR1 and its downstream effectors (FRS2, MEK, ERK)", "assay": "Western blot of FGFR1 signaling in bFGF-stimulated RO82-W-1 cells"}, "COT": {"target": "T1, COT (Homo sapiens, UniProt P41279)", "T1 construct": "purchased Carna Biosciences, Inc. (Kobe, Japan)", "T1 sequence (P41279 whole entry)": "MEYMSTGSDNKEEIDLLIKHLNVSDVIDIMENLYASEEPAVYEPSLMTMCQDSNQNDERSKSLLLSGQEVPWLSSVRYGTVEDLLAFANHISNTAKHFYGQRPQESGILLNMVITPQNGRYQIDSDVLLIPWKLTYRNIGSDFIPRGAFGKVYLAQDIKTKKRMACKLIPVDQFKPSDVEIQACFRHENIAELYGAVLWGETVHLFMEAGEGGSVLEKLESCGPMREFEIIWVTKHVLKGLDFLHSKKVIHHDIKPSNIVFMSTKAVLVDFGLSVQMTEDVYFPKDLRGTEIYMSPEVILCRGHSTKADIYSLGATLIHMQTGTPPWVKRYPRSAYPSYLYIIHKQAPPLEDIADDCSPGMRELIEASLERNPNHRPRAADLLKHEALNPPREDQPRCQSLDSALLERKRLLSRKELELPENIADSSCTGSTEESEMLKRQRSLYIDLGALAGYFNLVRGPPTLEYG", "assay": "Cell free kinase inhibition assay", "type": "biochemical", "method": "[…]. Briefly, each test compound was mixed with enzyme, substrate, ATP, and Mg under appropriate buffer conditions for the ELISA or MSA. […] IC50 values (the half maximal inhibitory concentration) were calculated from concentrations versus % inhibition curves."}, "TT cells": {"test_system": "TT cells", "assay": "Antiproliferation assay (WST-8)", "type": "cell-based", "settings": "Homo sapiens, TT, 240 h"}, "[2]": {"settings": "FTC-236 (DTC), antiproliferative, 3 days, read-out: IC50"}}, "note": "Like-named read-outs stand apart in the source and are kept apart here."}
{"smiles": "Cc1ccc(NC(=O)c2ccc(CN3CCN(C)CC3)cc2)cc1Nc1nccc(-c2cccnc2)n1", "note": "[Glivec, imatinib]", "values": [{"measurement": "antiproliferative activity", "setting": "RO82-W-1 cells", "value": "no antiproliferative activity"}]}
{"smiles": "COc1ccc(Oc2ccnc3cc(OC)c(OC)cc23)cc1OC", "note": "[Ki6783]", "values": [{"measurement": "T/N: ratio of IC50 values of thyroid cancer cell lines to that of Nthy-ori 3-1 cells", "setting": "K1 cells", "value": 5.4}, {"measurement": "IC50", "setting": "K1 cells", "value": 9.2, "unit": "µM"}, {"measurement": "T/N: ratio of IC50 values of thyroid cancer cell lines to that of Nthy-ori 3-1 cells", "setting": "RO82-W-1 cells", "value": 1.5}, {"measurement": "IC50", "setting": "RO82-W-1 cells", "value": 2.5, "unit": "µM"}, {"measurement": "antiproliferative activity", "setting": "RO82-W-1 cells", "value": "no antiproliferative activity"}, {"measurement": "IC50", "setting": "Nthy-ori 3-1 cells", "value": 1.7, "unit": "µM"}, {"measurement": "T/N: ratio of IC50 values of thyroid cancer cell lines to that of Nthy-ori 3-1 cells", "setting": "FTC-133 cells", "value": 4.7}, {"measurement": "IC50", "setting": "FTC-133 cells", "value": 8, "unit": "µM"}, {"measurement": "T/N: ratio of IC50 values of thyroid cancer cell lines to that of Nthy-ori 3-1 cells", "setting": "FTC-238 cells", "value": 1.2}, {"measurement": "IC50", "setting": "FTC-238 cells", "value": 2, "unit": "µM"}, {"measurement": "IC50", "setting": "FTC-236 cells; [2]", "value": "> 30", "unit": "µM"}]}
{"smiles": "COc1cc(OC)cc(-c2cc3cnc(N)nc3nc2NC(=O)NC(C)(C)C)c1", "note": "[PD166866]", "values": [{"measurement": "T/N: ratio of IC50 values of thyroid cancer cell lines to that of Nthy-ori 3-1 cells", "setting": "K1 cells", "value": 2.07}, {"measurement": "IC50", "setting": "K1 cells", "value": 29, "unit": "µM"}, {"measurement": "T/N: ratio of IC50 values of thyroid cancer cell lines to that of Nthy-ori 3-1 cells", "setting": "RO82-W-1 cells", "value": 0.14}, {"measurement": "IC50", "setting": "RO82-W-1 cells", "value": 1.9, "unit": "µM"}, {"measurement": "IC50", "setting": "Nthy-ori 3-1 cells", "value": 14, "unit": "µM"}, {"measurement": "T/N: ratio of IC50 values of thyroid cancer cell lines to that of Nthy-ori 3-1 cells", "setting": "FTC-133 cells", "value": 1.64}, {"measurement": "IC50", "setting": "FTC-133 cells", "value": 23, "unit": "µM"}, {"measurement": "T/N: ratio of IC50 values of thyroid cancer cell lines to that of Nthy-ori 3-1 cells", "setting": "FTC-238 cells", "value": 1.5}, {"measurement": "IC50", "setting": "FTC-238 cells", "value": 21, "unit": "µM"}, {"measurement": "IC50", "setting": "FTC-236 cells; [2]", "value": "> 30", "unit": "µM"}]}
{"smiles": "CCN(CC)CCCCNc1ncc2cc(-c3cc(OC)cc(OC)c3)c(NC(=O)NC(C)(C)C)nc2n1", "note": "[PD173074]", "values": [{"measurement": "IC50", "setting": "K1 cells; Homo sapiens, 72 h", "value": 11, "unit": "µM"}, {"measurement": "T/N: ratio of IC50 values of thyroid cancer cell lines to that of Nthy-ori 3-1 cells", "setting": "K1 cells", "value": 2.39}, {"measurement": "IC50", "setting": "RO82-W-1 cells; Homo sapiens, 72 h", "value": 0.63, "unit": "µM"}, {"measurement": "T/N: ratio of IC50 values of thyroid cancer cell lines to that of Nthy-ori 3-1 cells", "setting": "RO82-W-1 cells", "value": 0.14}, {"measurement": "IC50", "setting": "Nthy-ori 3-1 cells; Homo sapiens, 72 h", "value": 4.6, "unit": "µM"}, {"measurement": "antitumor activity", "setting": "RO82-W-1 xenograft; RO82-W-1 xenograft, daily oral administration for 14 days", "value": "significant antitumor activity"}, {"measurement": "T/N: ratio of IC50 values of thyroid cancer cell lines to that of Nthy-ori 3-1 cells", "setting": "FTC-133 cells", "value": 2.11}, {"measurement": "IC50", "setting": "FTC-133 cells; Homo sapiens, 72 h", "value": 9.7, "unit": "µM"}, {"measurement": "phosphorylation of FGFR1, FRS2, MEK, and ERK", "setting": "[1]; 1 h treatment, then bFGF 20 ng/mL and heparin 10 min", "value": "inhibited the bFGF-induced phosphorylation of FGFR1, FRS2, MEK, and ERK in a concentration-dependent manner"}, {"measurement": "T/N: ratio of IC50 values of thyroid cancer cell lines to that of Nthy-ori 3-1 cells", "setting": "FTC-238 cells", "value": 2.04}, {"measurement": "IC50", "setting": "FTC-238 cells; Homo sapiens, 72 h", "value": 9.4, "unit": "µM"}, {"measurement": "T/N: ratio of IC50 values of thyroid cancer cell lines to that of Nthy-ori 3-1 cells", "setting": "FTC-236 cells; FTC-236", "value": 0.93}, {"measurement": "IC50", "setting": "FTC-236 cells; Homo sapiens, 72 h, FTC-236 (DTC), antiproliferative, 3 days, read-out: IC50", "value": 4.3, "unit": "µM"}]}
{"smiles": "CNC(=O)c1cc(Oc2ccc(NC(=O)Nc3ccc(Cl)c(C(F)(F)F)c3)cc2)ccn1", "note": "[Sorafenib]", "values": [{"measurement": "IC50", "setting": "K1 cells; Homo sapiens, 72 h", "value": 5.2, "unit": "µM"}, {"measurement": "IC50", "setting": "RO82-W-1 cells; Homo sapiens, 72 h", "value": 4.2, "unit": "µM"}, {"measurement": "tumor growth", "setting": "RO82-W-1 xenograft; RO82-W-1 xenografts, oral once daily 21 days, doses between 30 and 300 mg/kg", "value": "inhibited tumor growth"}, {"measurement": "IC50", "setting": "FTC-133 cells; Homo sapiens, 72 h", "value": 5.5, "unit": "µM"}, {"measurement": "IC50", "setting": "COT", "value": "> 10", "unit": "µM"}, {"measurement": "phosphorylation of MEK", "setting": "[1]; 10 μM, bFGF-stimulated", "value": "weakly inhibited"}, {"measurement": "phosphorylation of FGFR1 or its other downstream effectors", "setting": "[1]; up to 10 μM, bFGF-stimulated", "value": "did not clearly inhibit"}, {"measurement": "IC50", "setting": "TT cells", "value": 0.26, "unit": "µM"}, {"measurement": "IC50", "setting": "FTC-238 cells; Homo sapiens, 72 h", "value": 7.3, "unit": "µM"}, {"measurement": "IC50", "setting": "FTC-236 cells; Homo sapiens, 72 h", "value": 7.7, "unit": "µM"}]}
